# “And” between values parts separate entries of the source, which are not always exact repeats. Equal entries are not always repeated. Where two headings read alike, the source gives them in different places.
# How the values were obtained:
# fleas [1] = test: Residual flea control on carpet circles by S-methoprene volatilized from a 60-watt light bulb in a residential living room; format: in vivo, Ctenocephalides felis; settings: for Number of Adult Fleas Emerging From 100 Eggs, individual test samples: 0.1 g (Solution B), 4 h exposure, 6.1 m from bulb, samples 1-6; for Percent Control (Arithmetic) / Percent Control (Geometric): relative to control samples
# Description: This example is a further illustration of the efficacy of S-methoprene volatilized by heating from an incandescent light bulb in the control of fleas. The test was performed in a conventional residential living room with a floor area of 21.5 m^2 (231 ft^2). A single standard 60-watt incandescent bulb was used as the heat source, with a felt ring containing 0.1 g of S-methoprene (using Solution B of Example 1). The temperature of the bulb surface at the location of the felt ring was approximately 200° F. (93° C.). The exposure time (the length of time that the lamp containing the bulb was turned on) was four hours. The carpet circles were placed twenty feet (6.1 m) from the bulb.
# After exposure to the volatilized S-methoprene, the carpet circles were each aged (allowed to rest without additional exposure) for 1, 2, 3, or 4 months. They were then challenged by infestation with flea eggs in the same manner as described above in Example 1. The results, expressed in terms of the number of adult fleas emerging after 35 days, are listed in Table II, together with corresponding results from control samples.
# fleas [2] = test: Flea control on carpet circles by S-methoprene volatilized by a plug-in heater; format: in vivo, Ctenocephalides felis; settings: for Adult Flea Emergence (From 100 Eggs), Individual Tests: 0.1 g, room 78.4 m^3, activation time 4 h, three carpet circles; for Emax: Ctenocephalides felis
# Description: This example illustrates the efficacy of S-methoprene volatilized by a plug-in heater designed for use with mosquito repellents. The heater was an AgRevo heater, 110-120v, 50-60 Hz, 5 watts, purchased from DBK Espana Household Technologies, and the tests were performed in the same test room used for Example 1, adjusted to a floor area of 18.6 m^2 (200 ft^2), resulting in a room volume of 78.4 m^3 (2,800 ft^3). The S-methoprene was placed in the heater by wetting a Whatman filter pad consisting of 50% cellulose and 50% glass fiber, the wetting solution consisting of 8.8% (by weight) S-methoprene in neat 1-methoxy 2-propanol. The amount of solution used was 1.2 g, resulting in 0.1 g of S-methoprene in the pad. Carpet circles were used as in the preceding examples, and all other procedures were the same as those in Example 1. Carpet circles were placed at distances of 0.61 m (2 ft), 3.0 m (10 ft), and 6.1 m (20 ft) from the plug-in-heater, with three carpet circles at each location. Three additional carpet circles were retained outside the room to avoid exposure to the volatilized S-methoprene for use as controls. The activation time for the test circles was four hours. Efficacy was determined by comparing the results from the test circles to those from the control circles.
# [3] = system: fleas (Ctenocephalides felis); test: Flea control on carpet circles by S-methoprene volatilized from a 100-watt light bulb in a test room; format: in vivo; settings: for Efficacy at Indicated Distance from Source, 35-Day Residual Effect: carpet rested 35 days before infestation
# Description: This example illustrates the efficacy of S-methoprene volatilized by heating from an incandescent light bulb in the control of fleas (Ctenocephalides felis).
# Testing was performed in a test room measuring 8.5 m (28 ft.) (length)×6.1 m (20 ft) (width)×4.3 m (14 ft.) (height) with a movable partition to reduce the room to the desired size. For this series of tests, the partition was placed in various positions such that the horizontal area of the room was variously:
# A single standard 100-watt incandescent light bulb was used as the heating source, and a felt ring that was cut to fit on the top of the light bulb was used as the support for the liquid S-methoprene solution. Three liquid S-methoprene solutions were used as follows:
# Solution A: S-methoprene and IRGANOX® L57 (in a weight ratio of 50:1), to achieve a solution of […] S-methoprene by weight. IRGANOX ® L57 (Ciba-Geigy Corp., Hawthorne, N.Y., USA) is a liquid aminic antioxidant in the form of an alkylated diphenylamine. No solvents were used.
# Solution B: S-methoprene and BHT (in a weight ratio of 50:1), dissolved in a mixture of 1-methoxy-2-propanol and deionized water (in a weight ratio of 84:16) to achieve a solution of 5.2% S-methoprene by weight.
# Solution C: S-methoprene and BHT (in a weight ratio of 50:1), dissolved in a mixture of 1-methoxy-2-propanol and Belmay B-5 Fragrance (in a weight ratio of 44:56) to achieve a solution of 5% S-methoprene by weight.
# As the infested target, circular pieces of carpet were used. Each piece was 7.6 cm (3 inches) in diameter cut from a 1.3-cm (0.5-inch) pile nylon carpet, and individual circles were placed at distances of 0.61 m (2 ft), 3.0 m (10 ft), and 6.1 m (20 ft) from the light bulb.
# The felt ring in each experiment was wetted with 2 g of solution. […] The bulb was turned on for periods of time ranging from 4 h to 120 h. This is referred to below as the “Activation Time.” The temperature of the bulb surface at the location of the felt ring was approximately 215° F. (102° C.). In some of the tests, a horizontal barrier was placed above the carpet circles at distances of 5.1 cm (2 inches) or 7.6 cm (3 inches), to simulate penetration of the S-methoprene to difficult-to-reach places such as under furniture. The carpet circles were placed in two positions below the barrier—one in which the center of the carpet circle was 30 cm (12 inches) from the edge of the barrier (identified below as “Position 1”), and the other in which the center of the carpet circle was 7.6 cm (3 inches) from the edge of the barrier (identified below as “Position 2”).
# After these exposures, the carpet circles were removed from the room, and sprinkled with flea rearing media and infested with 100 viable flea eggs. Similar carpet circles that had not undergone exposure to the volatilized S-methoprene were similarly sprinkled and infested. The exposed (test) and unexposed (control) carpet circles were then placed in a warm (27° C., 80° F.), high humidity (80% relative humidity) room for 35 days to allow any viable flea eggs in the circles to develop to adult fleas. In some of the tests, the carpet circles were allowed to rest for 35 days after removal from the treatment room before being infested with the flea eggs, to test for residual efficacy. In all cases, efficacy was determined by comparing the results from test circles to those from the control circles.
# [4] = 0.1 g, room 78.4 m^3, activation time 4 h, carpet centre 7.6 cm from barrier edge, 3.0 m
# [5] = 0.1 g, room 78.4 m^3, activation time 4 h, carpet centre 30 cm from barrier edge, 3.0 m
smiles,measurement,setting,value
"COC(C)(C)CCC[C@H](C)C/C=C/C(C)=C/C(=O)OC(C)C [S-methoprene, (E,E)-(7S)-11-methoxy-3,7,11-trimethyldodeca-2,4-dienoate, isopropyl ester]","Number of Adult Fleas Emerging From 100 Eggs, Mean (Arithmetic), test samples",fleas [1]; 1 month after treatment,2.8
same,"Number of Adult Fleas Emerging From 100 Eggs, Mean (Geometric), test samples",fleas [1]; 1 month after treatment,2.7
same,"Number of Adult Fleas Emerging From 100 Eggs, individual test samples",fleas [1]; 1 month after treatment,3 (2×) and 2 (3×) and 5
same,Percent Control (Arithmetic),fleas [1]; 1 month after treatment,95.6%
same,Percent Control (Geometric),fleas [1]; 1 month after treatment,95.8%
same,"Number of Adult Fleas Emerging From 100 Eggs, Mean (Arithmetic), test samples",fleas [1]; 2 months after treatment,3.2
same,"Number of Adult Fleas Emerging From 100 Eggs, Mean (Geometric), test samples",fleas [1]; 2 months after treatment,1.9
same,"Number of Adult Fleas Emerging From 100 Eggs, individual test samples",fleas [1]; 2 months after treatment,5 and 2 (2×) and 0 and 4 and 6
same,Percent Control (Arithmetic),fleas [1]; 2 months after treatment,95.5%
same,Percent Control (Geometric),fleas [1]; 2 months after treatment,97.3%
same,"Number of Adult Fleas Emerging From 100 Eggs, Mean (Arithmetic), test samples",fleas [1]; 3 months after treatment,3.7
same,"Number of Adult Fleas Emerging From 100 Eggs, Mean (Geometric), test samples",fleas [1]; 3 months after treatment,0.7
same,"Number of Adult Fleas Emerging From 100 Eggs, individual test samples",fleas [1]; 3 months after treatment,1 and 0 (3×) and 5 and 16
same,Percent Control (Arithmetic),fleas [1]; 3 months after treatment,94.0%
same,Percent Control (Geometric),fleas [1]; 3 months after treatment,98.9%
same,"Number of Adult Fleas Emerging From 100 Eggs, Mean (Arithmetic), test samples",fleas [1]; 4 months after treatment,4.0
same,"Number of Adult Fleas Emerging From 100 Eggs, Mean (Geometric), test samples",fleas [1]; 4 months after treatment,3.0
same,"Number of Adult Fleas Emerging From 100 Eggs, individual test samples",fleas [1]; 4 months after treatment,1 (2×) and 8 and 4 (2×) and 6
same,Percent Control (Arithmetic),fleas [1]; 4 months after treatment,94.3%
same,Percent Control (Geometric),fleas [1]; 4 months after treatment,95.7%
same,"Flea control, result in words","fleas [1]; all cases, 1-4 months after treatment",excellent control was achieved in all cases
same,Persistence of the treatment,fleas [1]; carpet circles aged after exposure,persistent for up to four months
same,"Adult Flea Emergence (From 100 Eggs), Average",fleas [2]; 0.61 m from heater,1
same,"Adult Flea Emergence (From 100 Eggs), Individual Tests",fleas [2]; 0.61 m from heater,0/1/2
same,"Adult Flea Emergence (From 100 Eggs), Average",fleas [2]; 3.0 m from heater,0.3
same,"Adult Flea Emergence (From 100 Eggs), Individual Tests",fleas [2]; 3.0 m from heater,1/0/0
same,"Adult Flea Emergence (From 100 Eggs), Average",fleas [2]; 6.1 m from heater,0.3
same,"Adult Flea Emergence (From 100 Eggs), Individual Tests",fleas [2]; 6.1 m from heater,1/0/0
same,Emax,"fleas [2]; 0.61 m from heater, read-out: % Efficacy (Relative to Control)",92.7%
same,Emax,"fleas [2]; 3.0 m from heater, read-out: % Efficacy (Relative to Control)",97.8%
same,Emax,"fleas [2]; 6.1 m from heater, read-out: % Efficacy (Relative to Control)",97.8%
same,Emax,"fleas [2]; all distances from heater, read-out: % Efficacy (Relative to Control), Overall",96.1%
same,"Flea control, result in words",fleas [2]; all distances from the plug-in heater,excellent control at all distances
same,"Efficacy Under 2-in. Overhead Barrier, Position 2",[3]; [4],Position 2: 96%
same,"Efficacy Under 3-in. Overhead Barrier, Position 2",[3]; [4],Position 2: 100%
same,"Efficacy Under 2-in. Overhead Barrier, Position 1",[3]; [5],Position 1: 99%
same,"Efficacy Under 3-in. Overhead Barrier, Position 1",[3]; [5],Position 1: 100%
same,Efficacy at Indicated Distance from Source,"[3]; 0.1 g, room 78.4 m^3, activation time 24 h, 0.61 m from source",99%
same,"Efficacy at Indicated Distance from Source, 35-Day Residual Effect","[3]; 0.1 g, room 78.4 m^3, activation time 24 h, 0.61 m",96%
same,Efficacy at Indicated Distance from Source,"[3]; 0.1 g, room 78.4 m^3, activation time 24 h, 3.0 m from source",99%
same,"Efficacy at Indicated Distance from Source, 35-Day Residual Effect","[3]; 0.1 g, room 78.4 m^3, activation time 24 h, 3.0 m",96%
same,Efficacy at Indicated Distance from Source,"[3]; 0.1 g, room 78.4 m^3, activation time 24 h, 6.1 m from source",99%
same,"Efficacy at Indicated Distance from Source, 35-Day Residual Effect","[3]; 0.1 g, room 78.4 m^3, activation time 24 h, 6.1 m",97%
same,Efficacy at Indicated Distance from Source,"[3]; 0.1 g, room 117.6 m^3, activation time 4 h, 0.61 m from source",100%
same,Efficacy at Indicated Distance from Source,"[3]; 0.1 g, room 117.6 m^3, activation time 4 h, 3.0 m from source",99.4%
same,Efficacy at Indicated Distance from Source,"[3]; 0.1 g, room 117.6 m^3, activation time 4 h, 6.1 m from source",99.4%
same,Efficacy at Indicated Distance from Source,"[3]; 0.1 g, room 186.8 m^3, activation time 4 h, 0.61 m from source",100%
same,Efficacy at Indicated Distance from Source,"[3]; 0.1 g, room 186.8 m^3, activation time 4 h, 3.0 m from source",99.6%
same,Efficacy at Indicated Distance from Source,"[3]; 0.1 g, room 186.8 m^3, activation time 4 h, 6.1 m from source",100%
same,Efficacy at Indicated Distance from Source,"[3]; 0.1 g, room 196 m^3, activation time 4 h, 0.61 m from source",95%
same,Efficacy at Indicated Distance from Source,"[3]; 0.1 g, room 196 m^3, activation time 4 h, 3.0 m from source",97.3%
same,Efficacy at Indicated Distance from Source,"[3]; 0.1 g, room 196 m^3, activation time 4 h, 6.1 m from source",96.5%
same,Efficacy at Indicated Distance from Source,"[3]; 1.8 g S-methoprene volatilized, room 78.4 m^3, activation time 120 h, 0.61 m from source",100%
same,Efficacy at Indicated Distance from Source,"[3]; 1.8 g S-methoprene volatilized, room 78.4 m^3, activation time 120 h, 3.0 m from source",100%
same,Efficacy at Indicated Distance from Source,"[3]; 1.8 g S-methoprene volatilized, room 78.4 m^3, activation time 120 h, 6.1 m from source",100%
same,"Flea control, result in words","[3]; all cases, including lower dosage rate, 35-day residual effect, overhead barrier",excellent control was achieved in all cases
